How the values were obtained:
Assay in all cases: Assay B: in vitro antibacterial activity, broth microdilution MIC (NCCLS)
Assay type in all cases: cell-based
[1] = tested on: Enterococcus faecalis PIU 1967; settings: Table 2, Assay B, cation-adjusted Mueller Hinton broth, 35° C., 16 to 20 hr; code B = Enterococcus faecalis PIU 1967; unit assumed
Summary of the method: (§1)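 Serial two-fold dilutions in cation-adjusted Mueller Hinton broth; inoculum ~5×10^5 CFU/mL from overnight cultures; 35° C, ambient air, 16 to 20 hr. MIC read visually as lowest concentration completely inhibiting growth. S. pneumoniae: 3% lysed horse blood, 20 to 24 hr; H. influenzae: 5 g/L yeast extract, 0.3 mmol/L hematin, 15 mg/L NAD, 20 to 24 hr.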

[2] = tested on: Streptococcus pneumoniae ATCC 6303; settings: Table 2, Assay B, Mueller Hinton broth with 3% lysed horse blood, 20 to 24 hr; code F = Streptococcus pneumoniae ATCC 6303; unit assumed
Summary of the method: as §1

[3] = tested on: Haemophilus influenzae DILL AMP R; settings: Table 2, Assay B, Mueller Hinton broth with yeast extract, hematin and NAD, 20 to 24 hr; code E = Haemophilus influenzae DILL AMP R; unit assumed
Summary of the method: as §1

[4] = tested on: Staphylococcus aureus ATCC 6538P; settings: Table 2, Assay B, cation-adjusted Mueller Hinton broth, 35° C., 16 to 20 hr; code A = Staphylococcus aureus ATCC 6538P; unit assumed
Summary of the method: as §1

Escherichia coli JUHL = settings: Table 2, Assay B, cation-adjusted Mueller Hinton broth, 35° C., 16 to 20 hr; code D = Escherichia coli JUHL; unit assumed
Summary of the method: as §1

Structure (SMILES) | Antibacterial Activity (MIC's), B [1] [µg/mL] | Antibacterial Activity (MIC's), F [2] [µg/mL] | Antibacterial Activity (MIC's), E [3] [µg/mL] | Antibacterial Activity (MIC's), A [4] [µg/mL] | Antibacterial Activity (MIC's), D (Escherichia coli JUHL) [µg/mL]
COc1c(-c2cc3c(s2)C(O)C(C)(C)CC3)ccc2c(=O)c(C(=O)O)cn(C3CC3)c12 (centres unmarked) [Example 241, 1-cyclopropyl-7-(7-hydroxy-6,6-dimethyl-4,5,6,7-tetrahydro-1-benzothien-2-yl)-8-methoxy-4-oxo-1,4-dihydro-3-quinolinecarboxylic acid] | 0.25 | 1 | 0.25 | 0.015 | 1
COc1c(-c2cc3c(s2)CCCC3)ccc2c(=O)c(C(=O)O)cn(C3CC3)c12 [Example 243, 1-cyclopropyl-8-methoxy-4-oxo-7-(4,5,6,7-tetrahydro-1-benzothien-2-yl)-1,4-dihydro-3-quinolinecarboxylic acid] | 0.25 | 1 | 0.25 | 0.015 | 1
COc1c(-c2cc3c(s2)C(N)C(F)(F)CC3)ccc2c(=O)c(C(=O)O)cn(C3CC3)c12.Cl (centres unmarked) [Example 244, 7-(7-amino-6,6-difluoro-4,5,6,7-tetrahydro-1-benzothien-2-yl)-1-cyclopropyl-8-methoxy-4-oxo-1,4-dihydro-3-quinolinecarboxylic acid hydrochloride] | 0.125 | 1 | 0.06 | ≤ 0.004 | 1
COc1c(-c2cc3c(s2)C(N)C(C)(C)CC3)ccc2c(=O)c(C(=O)O)cn(C3CC3)c12.Cl (centres unmarked) [Example 245, 7-(7-amino-6,6-dimethyl-4,5,6,7-tetrahydro-1-benzothien-2-yl)-1-cyclopropyl-8-methoxy-4-oxo-1,4-dihydro-3-quinolinecarboxylic acid hydrochloride] | 0.25 | 0.125 | 0.06 | 0.004 | 0.25
CNC1CCCc2cc(-c3c(F)cc4c(=O)c(C(=O)O)cn(C5CC5)c4c3OC)sc21.Cl (centres unmarked) [Example 246, 1-cyclopropyl-6-fluoro-8-methoxy-7-(7-(methylamino)-4,5,6,7-tetrhydro-1-benzothien-2-yl)-4-oxo-1,4-dihydro-3-quinolinecarboxiylic acid hydrochloride] | 0.25 | 0.06 | 0.03 | 0.004 | 0.25
COc1c(-c2cc3c(s2)CC(=O)C3)ccc2c(=O)c(C(=O)O)cn(C3CC3)c12 [Example 247, 1-cyclopropyl-8-methoxy-4-oxo-7-(5-oxo-5,6-dihydro-4H-cyclopenta[b]thien-2-yl)-1,4-dihydro-3-quinolinecarboxylic acid] | 2 | 0.25 | 0.25 | 0.125 | 4
CON=C1Cc2cc(-c3ccc4c(=O)c(C(=O)O)cn(C5CC5)c4c3OC)sc2C1 [Example 248, 1-cyclopropyl-8-methoxy-7-((5E/Z)-5-(methoxyimino)-5,6-dihydro-4H-cyclopenta[b]thien-2-yl)-4-oxo-1,4-dihydro-3-quinolinecarboxylic acid] | 0.25 | 0.5 | 0.5 | 0.03 | 2
COc1c(-c2cc3c(s2)CC(N)C3)ccc2c(=O)c(C(=O)O)cn(C3CC3)c12.Cl (centres unmarked) [Example 249, 7-(5-amino-5,6-dihydro-4H-cyclopenta[b]thien-2-yl)-1-cyclopropyl-8-methoxy-4-oxo-1,4-dihydro-3-quinolinecarboxylic acid hydrochloride] | 0.125 | 0.5 | 0.015 | 0.03 | 0.06
COC(=O)NC1Cc2cc(-c3ccc4c(=O)c(C(=O)O)cn(C5CC5)c4c3OC)sc2C1 (centres unmarked) [Example 251, 1-cyclopropyl-8-methoxy-7-(5-((methoxvycarbonyl)amino)-5,6-dihydro-4H-cyclopenta[b]thien-2-yl)-4-oxo-1,4-dihydro-3-quiunolinecarboxylic acid] | 0.5 | 0.25 | 0.125 | 0.03 | 2
COc1c(-c2cc3c(s2)CC(NC(C)=O)C3)ccc2c(=O)c(C(=O)O)cn(C3CC3)c12 (centres unmarked) [Example 252, 7-(5-(acetylamino)-5,6-dihydro-4H-cyclopenta[b]thien-2-yl)-1-cyclopropyl-8-methoxy-4-oxo-1,4-dihydro-3-quinolinecarboxylic acid] | 1 | 1 | 0.25 | 0.5 | 4
COc1c(-c2cc3c(s2)CC(NS(C)(=O)=O)C3)ccc2c(=O)c(C(=O)O)cn(C3CC3)c12 (centres unmarked) [Example 254, 1-cyclopropyl-8-methoxy-7-(5-((methylsulfonyl)amino)-5,6-dihydro-4H-cyclopenta[b]thien-2-yl)-4-oxo-1,4-dihydro-3-quinolinecarboxylic acid] | 0.5 | 0.25 | 0.06 | 0.06 | 1
COc1c(-c2cc3c(s2)CC(=NOCc2ccccc2)C3)ccc2c(=O)c(C(=O)O)cn(C3CC3)c12 [Example 255] | 4 | 8 | 2 | 0.5 | 32
COc1c(-c2cc3c(s2)C(O)C2(CC3)CC2)ccc2c(=O)c(C(=O)O)cn(C3CC3)c12 (centres unmarked) [Example 267, 7-(7-hydroxy-6-spirocyclopropyl-4,5,6,7-tetrahydro-1-benzothien-2-yl)-1-cyclopropyl-8-methoxy-4-oxo-1,4-dihydroquinoline-3-carboxylic acid] | 0.125 | 0.25 | 0.06 | ≤ 0.004 | 0.5
COc1c(-c2cc3c(s2)C(N)CC(C)(C)C3)ccc2c(=O)c(C(=O)O)cn(C3CC3)c12.Cl (centres unmarked) [Example 268, 7-(7-amino-5,5-dimethyl-4,5,6,7-tetrahydro-1-benzothien-2-yl)-1-cyclopropyl-8-methoxy-4-oxo-1,4-dihydroquinoline-3-carboxylic acid hydrochloride] | 0.25 | 0.06 | 0.25 | 0.03 | 0.5
Cl.NC1CCCc2cc(-c3nc4c(cc3F)c(=O)c(C(=O)O)cn4C3CC3)sc21 (centres unmarked) [Example 271, 7-(7-amino-4,5,6,7-tetrahydro-1-benzothien-2-yl)-1-cyclopropyl-6-fluoro-4-oxo-1,4-dihydro-1,8-naphthyridine-3-carboxylic acid hydrochloride] | 0.015 | ≤ 0.004 | ≤ 0.004 | ≤ 0.004 | ≤ 0.004
O=C(O)c1cn(C2CC2)c2cc(-c3cc4c(s3)C(O)CCC4)ccc2c1=O (centres unmarked) [Example 280, 1-cyclopropyl-7-(7-hydroxy-4,5,6,7-tetrahydro-1-benzothien-2-yl)-4-oxo-1,4-dihydroquinoline-3-carboxylic acid] | 0.125 | 0.25 | 0.06 | 0.015 | 0.125
O=C(O)c1cn(C2CC2)c2cc(-c3cc4c(s3)CCCC4O)ccc2c1=O (centres unmarked) [Example 281, 1-cyclopropyl-7-(4-hydroxy-4,5,6,7-tetrahydro-1-benzothien-2-yl)-4-oxo-1,4-dihydroquinoline-3-carboxylic acid] | 0.125 | 0.25 | 0.06 | 0.03 | 0.125
Cl.NC1CCCc2cc(-c3ccc4c(=O)c(C(=O)O)cn(C5CC5)c4n3)sc21 (centres unmarked) [Example 282, 7-(7-amino-4,5,6,7-tetrahydro-1-benzothien-2-yl)-1-cyclopropyl-4-oxo-1,4-dihydro-1,8-naphthyridine-3-carboxylic acid hydrochloride] | 0.03 | 0.015 | 0.03 | 0.008 | 0.015
Cl.NC1CCCc2sc(-c3ccc4c(=O)c(C(=O)O)cn(C5CC5)c4c3)cc21 (centres unmarked) [Example 287, 7-(4-amino-4,5,6,7-tetrahydro-1-benzothien-2-yl)-1-cyclopropyl-4-oxo-1,4-dihydroquinoline-3-carboxylic acid hydrochloride] | 0.125 | 0.03 | 0.03 | 0.03 | 0.06
